Measured values as given in PMC6100288 (Molecules : A Journal of Synthetic Chemistry and Natural …, 2018).

Target: T1, recombinant human PTP1B (Homo sapiens, UniProt P18031)
T1 construct: purchased Enzo Life Sciences Inc. BML-SE332-0050
T1 sequence (P18031 1-322 limits assumed): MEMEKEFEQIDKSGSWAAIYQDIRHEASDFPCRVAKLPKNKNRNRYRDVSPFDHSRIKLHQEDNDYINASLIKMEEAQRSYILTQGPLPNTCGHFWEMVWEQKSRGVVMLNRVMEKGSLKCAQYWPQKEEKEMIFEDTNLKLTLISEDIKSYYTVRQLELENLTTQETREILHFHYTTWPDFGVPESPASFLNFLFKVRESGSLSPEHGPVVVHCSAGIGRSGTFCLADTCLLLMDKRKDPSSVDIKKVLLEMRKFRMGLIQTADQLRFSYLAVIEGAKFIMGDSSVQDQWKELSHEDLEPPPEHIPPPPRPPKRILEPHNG
Experiment: Microplate-based PTP1B inhibition assay (pNPP substrate)
Format: biochemical
Conditions: n = 3; IC50 ± standard error; pH 7, 25 °C, 0.5 mM pNPP
Text: p-Nitrophenyl phosphate (pNPP), dimethyl sulfoxide (DMSO), sodium phosphate monobasic dihydrate, sodium phosphate dibasic, sodium hydroxide, sodium azide, tris-(hydroxymethyl)-aminomethane (Tris), bis-(2-hydroxyethyl)-imino-tris-(hydroxymethylmethane) (Bis-Tris), N,N,N′,N′-ethylenediaminetetraacetate (EDTA), dithiothreitol (DTT), methanol-d4, and HPLC grade acetonitrile were purchased from Sigma-Aldrich (St. Louis, MO, USA), recombinant human PTP1B (BML-SE332-0050, EC 3.1.3.48) was purchased from Enzo Life Sciences Inc. (Farmingdale, NY, USA), and formic acid was purchased from Merck (Darmstadt, Germany). Water was purified by deionization and filtration through a 0.22 μm membrane (Millipore, Billerica, MA, USA).
PTP1B inhibition assaying of the defatted extract, fraction F1 (from preparative HPLC: see Section 3.5) and microfractions (obtained as described below in Section 3.4) were performed according to the microplate-based method previously described. In brief, all solutions were prepared in a buffer of 50 mM Tris and 50 mM Bis-Tris containing 100 mM NaCL and adjusted to pH 7. […] The microplate was incubated for 10 min at 25 °C, and the reaction was started by addition of 0.001 μg/μL PTP1B stock solution (50 μL) in phosphate buffer (to give a final concentration of 0.05 µg PTP1B per well). […] For each microplate, blank samples (negative controls) containing buffer, enzyme, EDTA, DTT, and pNPP were measured in triplicate, and for the dilution series, RK682 was included as a reference inhibitory compound (i.e., positive control). The percentage inhibition of PTP1B was calculated according to the following equation: % inhibition=(1−SLOPEsample/SLOPEblank)×100
(§1) The high-resolution PTP1B biochromatograms (high-resolution PTP1B inhibition profiles) were constructed by plotting the inhibition values against the chromatographic retention time. Dose-response curves and IC50 values for dilution series of the crude extract and pure compounds were obtained using GraFit software, version 5.0.11 (Erithacus Software Limited, West Sussex, UK). For PTP1B IC50 values, the crude extract and isolated compounds were assessed by using the standard assay conditions described above. Nine dilutions were assessed in triplicates and percentage inhibition calculated as mean ± standard deviation in Microsoft Excel according to the above equation. The results were imported and used for assessing dose-response curves and IC50 values in GraFit software, version 5.0.11 (Erithacus Software Limited). Data were fitted to the equation f(x)=min+max−min/1+(x/IC50)^slope where min is the background, max–min is the y-range, x is the concentration, and slope is the Hill slope.
Work on `CC1(C)CC[C@]2(C(=O)O)CC[C@]3(C)C(=CC[C@@H]4[C@@]5(C)C[C@@H](O)[C@H](O)C(C)(C)[C@@H]5CC[C@]43C)[C@@H]2C1` [Compound 13, Maslinic acid] yielded an IC50 of 3210 ± 800 nM. For `CC1(C)CC[C@]2(C(=O)O)CC[C@]3(C)C(=CC[C@@H]4[C@@]5(C)CC[C@@H](O)C(C)(C)[C@@H]5[C@H](O)C[C@]43C)[C@@H]2C1` [Compound 14, 3-epi-sumaresinolic acid], the IC50 was 2870 ± 400 nM. For `CC1(C)CC[C@]2(C(=O)O)CC[C@]3(C)C(=CC[C@@H]4[C@@]5(C)CC[C@H](O)C(C)(C)[C@@H]5[C@H](O)C[C@]43C)[C@@H]2C1` [Compound 15, Sumaresinolic acid], the IC50 was 1840 ± 300 nM. Molecule `CC1(C)CC[C@]2(C(=O)O)CC[C@]3(C)C(=CC[C@@H]4[C@@]5(C)C[C@@H](O)[C@H](OC(=O)/C=C\c6ccc(O)cc6)C(C)(C)[C@@H]5CC[C@]43C)[C@@H]2C1` [Compound 16, 3-O-cis-p-coumaroyl-maslinic acid] has an IC50 of 460 ± 70 nM. Work on `CC1(C)CC[C@]2(C(=O)O)CC[C@]3(C)C(=CC[C@@H]4[C@@]5(C)C[C@@H](O)[C@H](OC(=O)/C=C/c6ccc(O)cc6)C(C)(C)[C@@H]5CC[C@]43C)[C@@H]2C1` [Compound 17, 3-O-trans-p-coumaroyl-maslinic acid] yielded an IC50 of 1080 ± 300 nM. For `CC1C(C(=O)O)CCC2(C)CCC3(C)C(=CCC4C5(C)CC(O)C(OC(=O)C=Cc6ccc(O)cc6)C(C)(C)C5CCC43C)C12` (stereo not drawn) [Compound 18, 3-O-trans-p-coumaroyl-2α-hydroxydulcioic acid], the IC50 was 1600 ± 500 nM.

Target: T1, recombinant human PTP1B
Experiment: High-resolution PTP1B inhibition profiling (biochromatogram of HPLC microfractions)
Format: biochemical
Conditions: HPLC microfractions of crude ethyl acetate extract, Figure 1; result in words
Method: PTP1B inhibition assaying of the defatted extract, fraction F1 (from preparative HPLC: see Section 3.5) and microfractions (obtained as described below in Section 3.4) were performed according to the microplate-based method previously described. In brief, all solutions were prepared in a buffer of 50 mM Tris and 50 mM Bis-Tris containing 100 mM NaCL and adjusted to pH 7. To each well containing microfractions or dilution series of pure compounds were added 18 µL of DMSO and 52 µL of 3.4 mM EDTA in Bis-Tris buffer (to give final well concentrations of 10% DMSO and 1 mM EDTA) as well as 60 µL of a Bis-Tris buffer solution containing 1.5 mM pNPP and 6 mM DTT in phosphate buffer (to give final well concentrations of 0.5 mM pNPP and 2 mM DTT). The microplate was incubated for 10 min at 25 °C, and the reaction was started by addition of 0.001 μg/μL PTP1B stock solution (50 μL) in phosphate buffer (to give a final concentration of 0.05 µg PTP1B per well). The reaction was monitored at 405 nm every 30 s for 10 min to yield the enzyme activity (expressed as cleavage rate AU/s) by using a Thermo Scientific Multiskan FC microplate photometer (Thermo Scientific, Waltham, MA, USA). For each microplate, blank samples (negative controls) containing buffer, enzyme, EDTA, DTT, and pNPP were measured in triplicate, and for the dilution series, RK682 was included as a reference inhibitory compound (i.e., positive control). The percentage inhibition of PTP1B was calculated according to the following equation: % inhibition=(1−SLOPEsample/SLOPEblank)×100
as §1, with “slope. Results are reported as IC50 values ± standard error.” for “slope.”
Microfractionation of the extract of M. albicans for high-resolution PTP1B inhibition profiling was conducted using an Agilent 1200 system (Santa Clara, CA, USA—HPLC system 1) comprising a G1311A quaternary pump, a G1322A degasser, a G1316A thermostatted column compartment, a G1315C photodiode array detector, a G1367C high-performance autosampler, and a G1364C fraction collector, controlled by Agilent ChemStation version B.03.02 software. Separations were performed by using a reversed-phase Phenomenex Luna C18(2) column (150 mm × 4.6 mm i.d., 3 μm particle size, 100 Å pore size) (Phenomenex, Torrance, CA, USA). A binary elution system of water: acetonitrile (95:5, solvent A) and acetonitrile: water (95:5, solvent B), both acidified with 0.1% formic acid, was used with a flow rate of 0.8 mL/min. […]
With `O=C(/C=C/c1ccc(O)c(O)c1)O[C@@H]1O[C@H](COC(=O)c2cc(O)c(O)c(O)c2)[C@@H](OC(=O)c2cc(O)c(O)c(O)c2)[C@H](O)[C@H]1O` [Compound 2, 1-O-(E)-caffeoyl-4,6-di-O-galloyl-β-D-glucopyranose] the “PTP1B inhibitory activity in high-resolution inhibition profile of crude extract” value (“PTP1B inhibitory activity” for short) was “PTP1B inhibitors”. For `C[C@@H]1O[C@@H](Oc2c(-c3cc(O)c(O)c(O)c3)oc3cc(O)cc(O)c3c2=O)[C@H](O)[C@H](O)[C@H]1O` [Compound 3, myricetin 3-O-α-L-rhamnopyranoside], the “PTP1B inhibitory activity” value was “PTP1B inhibitors”. For `C[C@@H]1O[C@@H](Oc2c(-c3ccc(O)c(O)c3)oc3cc(O)cc(O)c3c2=O)[C@H](OC(=O)c2cc(O)c(O)c(O)c2)[C@H](O)[C@H]1O` [Compound 5, quercetin 3-O-(2″-galloyl)-α-L-rhamnopyranoside], the “PTP1B inhibitory activity” value was “PTP1B inhibitors”. For `COc1c(O)cc(-c2oc3cc(O)cc(O)c3c(=O)c2O[C@@H]2O[C@@H](C)[C@H](O)[C@@H](O)[C@H]2O)cc1O` [Compound 6, mearnsetin 3-O-α-L-rhamnopyranoside], the “PTP1B inhibitory activity” value was “PTP1B inhibitors”. For `O=c1c(O[C@@H]2OC[C@H](O)[C@H](O)[C@H]2O)c(-c2ccc(O)cc2)oc2cc(O)cc(O)c12` [Compound 8, kaempferol 3-O-α-L-arabinopyranoside], the “PTP1B inhibitory activity” value was “PTP1B inhibitors”.

System: PTP1B
Experiment: not given
Design: method as in PMID 23704520
Conditions: read-out: previously reported IC50-value (PTP1B); cited from earlier work
In the case of `CC1(C)CC[C@]2(C(=O)O)CC[C@]3(C)C(=CC[C@@H]4[C@@]5(C)C[C@@H](O)[C@H](O)C(C)(C)[C@@H]5CC[C@]43C)[C@@H]2C1` [Compound 13, Maslinic acid], the IC50 is listed as 5930 nM.
